pKi: −log10 of the molar value.
Target: T1, GSK-3β (amino acids 1-420) (Homo sapiens, UniProt P49841)
T1 construct: hexa-histidine tag with thrombin cleavage site (N); made in house
Assay: Ki determination for the inhibition of GSK-3 (standard coupled enzyme system)
Type: biochemical
Settings: 20 μM ATP, 300 μM peptide, 20 nM GSK-3β, 30° C.; read-out: Ki (GSK-3 inhibitory activity)
Procedure: Reactions were carried out in a solution containing 100 mM HEPES (pH 7.5), 10 mM MgCl2, 25 mM NaCl, 300 μM NADH, 1 mM DTT and 1.5% DMSO. […] Reactions were carried out at 30° C. and 20 nM GSK-3β. Final concentrations of the components of the coupled enzyme system were 2.5 mM phosphoenolpyruvate, 300 μM NADH, 30 μg/ml pyruvate kinase and 10 μg/ml lactate dehydrogenase.
An assay stock buffer solution was prepared containing all of the reagents listed above with the exception of ATP and the test compound of interest. The assay stock buffer solution (175 μl) was incubated in a 96 well plate with 5 μl of the test compound of interest at final concentrations spanning 0.002 μM to 30 μM at 30° C. for 10 min. […] The reaction was initiated by the addition of 20 μl of ATP (final concentration 20 μM). Reaction rates were obtained using a Molecular Devices Spectramax plate reader (Sunnyvale, Calif.) over 10 min at 30° C. The Ki values were determined from the rate data as a function of inhibitor concentration.

T1 sequence (P49841 whole entry, the tested form may be a part): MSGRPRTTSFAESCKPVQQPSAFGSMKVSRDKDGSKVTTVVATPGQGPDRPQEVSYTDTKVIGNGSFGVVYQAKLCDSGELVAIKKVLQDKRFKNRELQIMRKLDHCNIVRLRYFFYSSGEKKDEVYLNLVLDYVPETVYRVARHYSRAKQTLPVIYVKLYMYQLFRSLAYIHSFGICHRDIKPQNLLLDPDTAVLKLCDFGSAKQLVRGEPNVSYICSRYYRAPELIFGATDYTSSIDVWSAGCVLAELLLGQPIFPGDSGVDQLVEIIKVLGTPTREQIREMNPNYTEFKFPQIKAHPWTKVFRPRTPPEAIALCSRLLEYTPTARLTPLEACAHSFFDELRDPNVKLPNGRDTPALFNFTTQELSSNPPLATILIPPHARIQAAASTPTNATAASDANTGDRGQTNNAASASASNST

Row | Compound | pKi
1 | Nc1n[nH]c2nncc(-c3ccccc3)c12 [Compound 32, 4-Phenyl-1H-pyrazolo[3,4-c]pyridazin-3-ylamine] | 5.00 to 7.00
2 | Nc1n[nH]c2nnc(-c3ccc(F)cc3)c(-c3ccc(F)cc3)c12 [Compound 3, 3-Amino-4,5-bis(4-fluorophenyl)-1H-pyrazolo[3,4-c]pyridazine] | 5.00 to 7.00
3 | CC(=O)Nc1n[nH]c2nnc(-c3ccccc3)c(-c3ccccc3)c12 [Compound 9, N-(4,5-Diphenyl-1H-pyrazolo[3,4-c]pyridazin-3-yl)-acetamide] | 5.00 to 7.00
4 | O=C(Nc1n[nH]c2nnc(-c3ccccc3)c(-c3ccccc3)c12)c1ccccc1 [Compound 10, N-(4,5-Diphenyl-1H-pyrazolo[3,4-c]pyridazin-3-yl)-benzamide] | 5.00 to 7.00
5 | Nc1n[nH]c2nnc(-c3ccccc3Cl)c(-c3ccccc3)c12 [Compound 14, 3-Amino-4-phenyl-5-(2-chloro-phenyl)-1H-pyrazolo[3,4-c]pyridazine] | > 7.00
6 | Nc1n[nH]c2nnc(-c3ccncc3)c(-c3ccccc3)c12 [Compound 7, 3-Amino-4-phenyl-5-(4-pyridyl)-1H-pyrazolo[3,4-c]pyridazine] | < 5.00
7 | Nc1n[nH]c2nnc(-c3ccccc3F)c(-c3ccccc3)c12 [Compound 15, 3-Amino-4-phenyl-5-(2-fluorophenyl)-1H-pyrazolo[3,4-c]pyridazine] | > 7.00

Continued, values first:

Row | pKi | Compound
8 | > 7.00 | Nc1n[nH]c2nnc(-c3ccccc3)c(-c3ccc(F)cc3)c12 [Compound 5, 3-Amino-4-(1-fluorophenyl)-5-phenyl-1H-pyrazolo[3,4-c]pyridazine]
9 | < 5.00 | Nc1n[nH]c2nnc(-c3ccccc3)c(-c3ccc(Cl)cc3)c12 [Compound 2, 3-Amino-4(4-chlorophenyl)-5-phenyl-1H-pyrazolo[3,4-c]pyridazine]
10 | > 7.00 | Nc1n[nH]c2nnc(-c3cccc(F)c3)c(-c3ccccc3)c12 [Compound 8, 3-Amino-4-phenyl-5-(3-fluorophenyl)-1H-pyrazolo[3,4-c]pyridazine]
11 | < 5.00 | Nc1n[nH]c2nnc(-c3ccc(F)cc3)c(-c3ccccc3)c12 [Compound 4, 3-Amino-4-phenyl-5-(4-fluorophenyl)-1H-pyrazolo[3,4-c]pyridazine]
12 | > 7.00 | Nc1n[nH]c2nnc(-c3ccccc3)c(-c3cccc(F)c3)c12 [Compound 6, 3-Amino-4(3-fluorophenyl)-5-phenyl-1H-pyrazolo[3,4-c]pyridazine]
13 | > 7.00 | Cc1ccc(-c2nnc3[nH]nc(N)c3c2-c2ccccc2)cc1 [Compound 11, 3-Amino-4-phenyl-5-(4-methyl-phenyl)-1H-pyrazolo[3,4-c]pyridazine]
14 | 5.00 to 7.00 | Nc1n[nH]c2nnc(-c3ccc(Cl)cc3)c(-c3ccccc3)c12 [Compound 16, 3-Amino-4-phenyl-5-(4-chloro-phenyl)-1H-pyrazolo[3,4-c]pyridazine]
15 | 5.00 to 7.00 | Cc1ccccc1-c1nnc2[nH]nc(N)c2c1-c1ccccc1 [Compound 12, 3-Amino-4-phenyl-5-(2-methyl-phenyl)-1H-pyrazolo[3,4-c]pyridazine]
16 | 5.00 to 7.00 | Cc1cccc(-c2nnc3[nH]nc(N)c3c2-c2ccccc2)c1 [Compound 13, 3-Amino-4-phenyl-5-(3-methyl-phenyl)-1H-pyrazolo[3,4-c]pyridazine]
